# Target: Delta-5-Desaturase (D5D) (Homo sapiens (Human), UniProt O60427)
# Test: In vitro measurement of Delta-5-Desaturase inhibitory activity using DGLA-CoA and Arachidonyl-CoA mass spectrometric assays
# Type: biochemical
# Conditions: membrane preparations of D5D-overexpressing HEK293 6E cells; averaged over at least two independent runs
# Procedure: In vitro Measurement of Delta-5-Desaturase Inhibitory Activity using DGLA-CoA and Arachidonyl-CoA Mass Spectrometric Assays
# Membrane preparations of D5D-overexpressing HEK293 6E cells were prepared in which the total protein concentration was 5.6 mg/mL. Stock D5D membrane preparations were diluted in D5D assay buffer (25 mM 2-amino-2-(hydroxymethyl)-1,3-propanediol, pH 7.5 containing 10 mM MgCl2, 1 mM octyl glucoside (SigmaAldrich 0-8001), 1 mM tris(2-carboxyethyl)phosphine hydrochloride (SigmaAldrich 646547)) to a final D5D membrane concentration of 10 μg/mL in an assay plate containing serially diluted test compounds. To 15 μL of this D5D preparation was added 15 μL of a substrate solution (0.25 mM NADH (nicotinamide adenine dinucleotide, Roche Diag. 10107735001), 0.25 mM adenosine triphosphate (SigmaAldrich A-3377), 0.05 mM coenzyme A hydrate (SigmaAldrich C-4282), and 0.01 mM DGLA (dihomo-g-linolenic acid, Sigma E-4504) in the same D5D assay buffer. After one-hour incubation at ambient temperature acetonitrile (30 μL) was added to quench the reaction and plates were centrifuged for 10 min @3,000 rpm. Mass spectrometric analysis involved a Rapidfire 360 SPE system coupled to an ABSciex API4000 Triple Quadrupole mass spectrometer using a C18 SPE cartridge (G9203-80105) with ionization in negative mode (solvent A=100% water; solvent B=100% acetonitrile, each solvent containing 5 mM ammonium acetate). DGLA-CoA and Arachidonyl-CoA were detected by multiple reaction monitoring (MRM) of the doubly charged parent ions at m/z 526.6 and 525.6, respectively.
# Sx is value from unknown sample, So is value from DMSO alone and Sc is value from no enzyme well. For CRC analysis, the % of inhibitions were analyzed with 4 Parameter Logistic Model or Sigmoidal Dose-Response Model using XLfit (IDBS, Guilford, UK). The potency of the test item was expressed as IC50 nM, corresponding to the test item concentration able to inhibit the 50% of the enzyme maximal response. IC50 values were averaged values determined by at least two independent runs.
# This assay may be used to test any of the compounds described herein to assess and characterize a compound's ability to inhibit D5D.
# Delta-5-Desaturase (D5D), sequence (O60427 whole entry, species assumed): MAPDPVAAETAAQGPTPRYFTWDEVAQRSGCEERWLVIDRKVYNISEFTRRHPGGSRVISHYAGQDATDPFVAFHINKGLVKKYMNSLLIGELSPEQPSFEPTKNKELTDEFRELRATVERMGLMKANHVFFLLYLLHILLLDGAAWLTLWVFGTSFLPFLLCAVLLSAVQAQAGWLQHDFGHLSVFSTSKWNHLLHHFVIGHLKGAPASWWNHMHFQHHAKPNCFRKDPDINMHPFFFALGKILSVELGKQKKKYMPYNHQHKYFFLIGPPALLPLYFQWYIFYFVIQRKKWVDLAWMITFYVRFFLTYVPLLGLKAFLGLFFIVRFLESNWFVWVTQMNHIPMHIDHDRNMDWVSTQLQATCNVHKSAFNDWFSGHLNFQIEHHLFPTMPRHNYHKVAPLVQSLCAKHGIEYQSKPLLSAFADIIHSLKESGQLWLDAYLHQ
row,SMILES,IC50 [nM]
1,"COc1ccn2c(=O)c(-c3cnn(CC4COC4)c3)c(C(F)(F)F)nc2c1 [Example 39-54, 8-methoxy-3-{1-[(oxetan-3-yl)methyl]-1H-pyrazol-4-yl}-2-(trifluoromethyl)-4H-pyrido[1,2-a]pyrimidin-4-one]",207
2,"COc1cnc2nc(C(F)(F)F)c(-c3cnn(CC(F)(F)C(F)(F)F)c3)c(=O)n2c1 [Example 40-1, 7-Methoxy-3-[1-(2,2,3,3,3-pentafluoropropyl)-1H-pyrazol-4-yl]-2-(trifluoromethyl)-4H-[1,3]diazino[1,2-a]pyrimidin-4-one]",153
3,"O=c1c(-c2ccc(OCC(F)(F)F)cc2)c(C(F)(F)F)nc2cc(F)ccn12 [Example 2-3, 8-fluoro-3-(4-(2,2,2-trifluoroethoxy)phenyl)-2-(trifluoromethyl)-4H-pyrido[1,2-a]pyrimidin-4-one]",88.4
4,"COc1ccn2c(=O)c(-c3ccc(OCC#N)cc3)c(C(F)(F)F)nc2n1 [Example 1-40, (4-(8-methoxy-4-oxo-2-(trifluoromethyl)-4H-pyrimido[1,2-a]pyrimidin-3-yl)phenoxy)acetonitrile]",18.6
5,"Cc1cn2c(=O)c(-c3cnc(OCC(F)(F)F)nc3)c(C(F)(F)F)nc2cn1 [Example 39-30, 7-methyl-3-[2-(2,2,2-trifluoroethoxy)pyrimidin-5-yl]-2-(trifluoromethyl)-4H-pyrazino[1,2-a]pyrimidin-4-one]",> 67000
6,"COc1cnn2c(=O)c(-c3cnn(CC4CC(F)(F)C4)c3)c(C(F)(F)F)nc2c1 [Example 39-55, 3-{1-[(3,3-difluorocyclobutyl)methyl)-1H-pyrazol-4-yl}-8-methoxy-2-(trifluoromethyl)-4H-pyrimido[1,2-b]pyridazin-4-one]",748
7,"COc1cc2nc(C(F)(F)F)c(-c3cnn(CCC(F)(F)F)c3)c(=O)n2cc1Cl [Example 39-2, 7-chloro-8-methoxy-2-(trifluoromethyl)-3-[1-(3,3,3-trifluoropropyl)-1H-pyrazol-4-yl]-4H-pyrido[1,2-a]pyrimidin-4-one]",113
8,"N#Cc1ccc2nc(C(F)(F)F)c(-c3cnn(CC(F)(F)C(F)(F)F)c3)c(=O)n2c1 [Example 39-9, 4-oxo-3-[1-(2,2,3,3,3-pentafluoropropyl)-1H-pyrazol-4-yl]-2-(trifluoromethyl)-4H-pyrido[1,2-a]pyrimidine-7-carbonitrile]",47.3
9,"COc1ccn2c(=O)c(-c3cnc(OCC(F)(F)F)nc3)c(C(F)(F)F)nc2c1 [Example 37, 8-Methoxy-3-[2-(2,2,2-trifluoroethoxy)pyrimidin-5-yl]-2-(trifluoromethyl)-4H-pyrido[1,2-a]pyrimidin-4-one]",87.6
10,"COc1ccn2c(=O)c(-c3ccc(OC[C@@H]4CC4(F)F)cc3)c(C(F)(F)F)nc2c1 (single isomer, unassigned) [Example 1-84]",2.7
11,"O=c1c(-c2ccc(OCC(F)(F)F)cc2F)c(C(F)(F)F)nc2ccccn12 [Example 5-1, 3-(2-Fluoro-4-(2,2,2-trifluoroethoxy)phenyl)-2-(trifluoromethyl)-4H-pyrido[1,2-a]pyrimidin-4-one]",12.5
12,"COc1cnn2c(=O)c(-c3cnn(CC(F)(F)C(F)(F)F)c3)c(C(F)(F)F)nc2c1 [Example 34, 8-Methoxy-3-[1-(2,2,3,3,3-pentafluoropropyl)-1H-pyrazol-4-yl]-2-(trifluoromethyl)-4H-pyrimido[1,2-b]pyridazin-4-one]",118
13,"C[S@+]([O-])c1ccn2c(=O)c(-c3ccc(OCC(F)(F)F)cc3)c(C(F)(F)F)nc2c1 [Example 15-3, 8-((S)-methylsulfinyl)-3-(4-(2,2,2-trifluoroethoxy)phenyl)-2-(trifluoromethyl)-4H-pyrido[1,2-a]pyrimidin-4-one]",235
14,"COc1ccn2c(=O)c(-c3ccn(CC(F)(F)C(F)(F)F)n3)c(C(F)(F)F)nc2c1 [Example 39-1, 8-Methoxy-3-[1-(2,2,3,3,3-pentafluoropropyl)-1H-pyrazol-3-yl]-2-(trifluoromethyl)-4H-pyrido[1,2-a]pyrimidin-4-one]",85
15,"COc1ccn2c(=O)c(-c3cnn(C[C@@H]4CC4(F)F)c3)c(C(F)(F)F)nc2c1 [Example 70, 3-(1-{[(1S)-2,2-Difluorocyclopropyl]methyl}-1H-pyrazol-4-yl)-8-methoxy-2-(trifluoromethyl)-4H-pyrido[1,2-a]pyrimidin-4-one]",10.5
16,"COc1ccc2nc(C(F)(F)F)c(-c3cnn(CC(F)(F)C(F)(F)F)c3)c(=O)n2c1 [Example 39-6, 7-methoxy-3-[1-(2,2,3,3,3-pentafluoropropyl)-1H-pyrazol-4-yl]-2-(trifluoromethyl)-4H-pyrido[1,2-a]pyrimidin-4-one]",115
17,"COc1ccn2c(=O)c(-c3ccc(CCC(F)(F)F)cc3)c(C(F)(F)F)nc2c1 [Example 7-5, 8-methoxy-2-(trifluoromethyl)-3-(4-(3,3,3-trifluoropropyl)phenyl)-4H-pyrido[1,2-a]pyrimidin-4-one]",11.9
18,"COc1ccn2c(=O)c(-n3cnc(CCC(F)(F)F)c3)c(C(F)(F)F)nc2c1 [Example 59, 8-Methoxy-2-(trifluoromethyl)-3-[4-(3,3,3-trifluoropropyl)-1H-imidazol-1-yl]-4H-pyrido[1,2-a]pyrimidin-4-one]",365
19,"CN(C)c1ccn2c(=O)c(-c3ccc(OCC(F)(F)F)cc3)c(C(F)(F)F)nc2c1 [Example 1-28, 8-(dimethylamino)-3-(4-(2,2,2-trifluoroethoxy)phenyl)-2-(trifluoromethyl)-4H-pyrido[1,2-a]pyrimidine-4-one]",43.5
20,"O=c1ccn2c(=O)c(-c3ccc(OCC(F)(F)F)c(F)c3)c(C(F)(F)F)nc2[nH]1 [Example 10-2, 7-(3-fluoro-4-(2,2,2-trifluoroethoxy)phenyl)-8-(trifluoromethyl)-2H-pyrimido[1,2-a]pyrimidine-2,6(1H)-dione]",328
21,"COc1ccn2c(=O)c(-c3cnn(CC4CC4(F)F)c3)c(C(F)(F)F)nc2c1 (racemic) [Example 39-42, 3-{1-[(2,2-difluorocyclopropyl)methyl]-1H-pyrazol-4-yl}-8-methoxy-2-(trifluoromethyl)-4H-pyrido[1,2-a]pyrimidin-4-one]",11.4
22,"COc1ccn2c(=O)c(-c3ccc(OCC(F)(F)F)nc3F)c(C(F)(F)F)nc2c1 [Example 7-1, 3-(2-Fluoro-6-(2,2,2-trifluoroethoxy)-3-pyridinyl)-8-methoxy-2-(trifluoromethyl)-4H-pyrido[1,2-a]pyrimidin-4-one]",125
23,"CNC(=O)c1ccn2c(=O)c(-c3cnn(CC(F)(F)C(F)(F)F)c3)c(C(F)(F)F)nc2c1 [Example 12-5, N-methyl-4-oxo-3-(1-(2,2,3,3,3-pentafluoropropyl)-1H-pyrazol-4-yl)-2-(trifluoromethyl)-4H-pyrido[1,2-a]pyrimidine-8-carboxamide]",313
24,"COc1ccn2c(=O)c(-c3cnn(C[C@H]4CC4(F)F)c3)c(C(F)(F)F)nc2c1 [Example 69, 3-(1-{[(1R)-2,2-Difluorocyclopropyl]methyl}-1H-pyrazol-4-yl)-8-methoxy-2-(trifluoromethyl)-4H-pyrido[1,2-a]pyrimidin-4-one]",18.2
25,"O=c1c(-c2cnc(OCC(F)(F)F)nc2)c(C(F)(F)F)nc2ccc(F)cn12 [Example 39-26, 7-fluoro-3-[2-(2,2,2-trifluoroethoxy)pyrimidin-5-yl]-2-(trifluoromethyl)-4H-pyrido[1,2-a]pyrimidin-4-one]",> 67000
